From patent US8618286B2, “Benzoxazines, benzothiazines, and related compounds having NOS inhibitory activity” (NeurAxon, Inc., priority 2008, dated 2013)

Columns and labels:
[1] = molecular target: Nitric oxide synthase (endothelial, human recombinant) eNOS (Homo sapiens (Human), UniProt P29474); assay: Human eNOS enzyme assay ([3H]-L-arginine to L-citrulline conversion); type: biochemical
Protocol: (§1) nNOS (Human), eNOS (Human) and iNOS (Human) Enzyme Assay
(§2) Primary stock solutions of test compounds at a concentration of 6 mM were prepared from the 2 to 5 mg powder. The primary stock solutions of each test compound were prepared freshly in distilled water on the day of study to obtain a final concentration of 6 mM. For determination of IC50 values, 12 test compound concentrations were prepared as 3-fold serial dilutions. Concentration range of test compound utilized for nNOS were 0.001 to 300 μM and for eNOS were 0.003 to 1000 μM. The vehicle of the test compound or inhibitor was used as blank control. For non-specific activity, 100 μM L-NMMA was used. Runs using the IC50 concentration of L-NAME were done in parallel as controls.
(§3) All incubations are performed in duplicate
(§4) The reaction mixture was prepared on ice by adding the following components with a micropipette to a polypropylene microcentrifuge tube: • 10 μL of test compound, inhibitor or control (vehicle or L-NMMA) solution; • 25 μL of Reaction Buffer {25 mM Tris-HCl, 0.6 μM BH4, 0.2 μM FMN, 0.2 μM FAD}; • 5 μL of 10 mM NADPH solution {1 mM} (freshly prepared in 10 mM Tris-HCl (pH 7.4); • 5 μL of 6 mM CaCl2 {600 W}; • 5 μL of 1 mM Calmodulin {100 W}; and • 5 μL of 0.02 μg/μL nNOS or 0.12 μg/μL eNOS.
(§5) The above reaction mixture was pre-incubated at room temperature for 15 mins.
(§6) The reaction was started by the addition of the substrate (in 5 μL containing 1 μCi of [^3H]-L-Arginine+2.5 μM of unlabeled L-Arginine) to the reaction mixture. Total reaction volume is 60 μL.
(§7) The reaction was mixed using a vortex mixer and incubate the above reaction mixture at 37° C. in an incubator for 30 minutes.
(§8) To stop the reaction, 400 μL of ice-cold Stop Buffer was added at the end of the incubation period.
(§9) The reaction was then mixed using a vortex mixer, and the reaction samples were transferred to spin cups, which were centrifuged using a microcentrifuge, at 13,000 rpm for 30 sec. at room temperature.
(§10) The spin cups were removed from the holder, 450 μL of eluate (containing the unbound L-citrulline) were transferred to scintillation vials. 3 mL of scintillation fluid were added and the radioactivity was quantified in a liquid scintillation counter.
(§11) Data was analyzed using a Sigmoidal dose-response (variable slope) curve to determine the IC50 value of the test compound. Y=Bottom+(Top−Bottom)/(1+10^((Log IC50−X)*Hill Slope))

[2] = tested on: dural inflammation model of migraine; assay: Dural inflammation rat model of migraine; type: in vivo; conditions: rats, 3 mg/kg p.o., about 15 min pre-IS, measured up to 6 hours post IS
Protocol: These features mimic the characteristic often seen in migraineurs during a headache, especially when treatment is delayed, and the development of central sensitization has occurred (Burstein et al., Ann. Neurol. 47:614-624, 2000; Burstein et al., Brain, 123:1703-1709, 2000). Compound (8) was tested in a dural inflammation model of migraine according to previously described procedures (WO 2007/120830 or as described in US-2008-0031822-A1). Baseline paw withdrawal thresholds were recorded approximately 30 min before the IS administration by application of calibrated von Frey filaments to the hindpaws to measure tactile allodynia. Approximately 15 minutes pre-IS administration, the test compound in water was administered by oral gavage (1 mL/kg) at a dose of 3 mg/kg per os (p.o.). Measurements of tactile allodynia were recorded at 1 hour intervals up to 6 hours post IS administration.

[3] = molecular target: Nitric oxide synthase (neuronal, human recombinant) nNOS (Homo sapiens (Human), UniProt P29475); assay: Human nNOS enzyme assay ([3H]-L-arginine to L-citrulline conversion); type: biochemical
Protocol: as §1, §2, §3, §4, §5, §6, §7, §8, §9, §10, §11

IC50 [1]: 33.5 µM | Selectivity eNOS/nNOS ([3]; ratio of human eNOS IC50 to human nNOS IC50): 531 | IC50 ([3]; recombinant human nNOS): 0.06 µM
Compound: CNCCN1CCSc2cc(NC(=N)c3cccs3)ccc21 [Compound 8, N-(4-(2-(methylamino)ethyl)-3,4-dihydro-2H-benzo[b][1,4]thiazin-7-yl)thiophene-2-carboximidamide]
antiallodynic effect (tactile allodynia, hindpaw) [2]: antiallodynic effect
